# Results from patent publication US20260262643A1, “HERBICIDAL BENZOXAZINES” (FMC CORPORATION, priority 2022, published 2026).
# Experiments:
# blackgrass [1] = test: Test A preemergence; type: in vivo, Alopecurus myosuroides
# In short: (§1)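 Plants were grown in loam and sand and treated preemergence or postemergence (one- to two-leaf stage, 2–10 cm) with compound in solvent plus surfactant. Response was scored against untreated controls after 10 greenhouse days, where 0 means no effect and 100 complete control.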
# corn [2] = test: Test A preemergence; type: in vivo, Zea mays
# In short: as §1
# foxtail, giant [3] = test: Test A preemergence; type: in vivo, Setaria faberi
# In short: as §1
# goosegrass [4] = test: Test A preemergence; type: in vivo, Eleusine indica
# In short: as §1
# kochia [5] = test: Test A preemergence; type: in vivo, Bassia scoparia
# In short: as §1
# oat, wild [6] = test: Test A preemergence; type: in vivo, Avena fatua
# In short: as §1
# pigweed, palmer [7] = test: Test A preemergence; type: in vivo, Amaranthus palmeri
# In short: as §1
# ragweed [8] = test: Test A preemergence; type: in vivo, Ambrosia artemisiifolia
# In short: as §1
# ryegrass, Italian [9] = test: Test A preemergence; type: in vivo, Lolium multiflorum
# In short: as §1
# soybean [10] = test: Test A preemergence; type: in vivo, Glycine max
# In short: as §1
# wheat [11] = test: Test A preemergence; type: in vivo, Triticum aestivum
# In short: as §1
# blackgrass [12] = test: Test A postemergence; type: in vivo, Alopecurus myosuroides; details: postemergence, 10 days
# In short: as §1
# corn [13] = test: Test A postemergence; type: in vivo, Zea mays; details: postemergence, 10 days
# In short: as §1
# foxtail, giant [14] = test: Test A postemergence; type: in vivo, Setaria faberi; details: postemergence, 10 days
# In short: as §1
# goosegrass [15] = test: Test A postemergence; type: in vivo, Eleusine indica; details: postemergence, 10 days
# In short: as §1
# kochia [16] = test: Test A postemergence; type: in vivo, Bassia scoparia; details: postemergence, 10 days
# In short: as §1
# oat, wild [17] = test: Test A postemergence; type: in vivo, Avena fatua; details: postemergence, 10 days
# In short: as §1
# pigweed, palmer [18] = test: Test A postemergence; type: in vivo, Amaranthus palmeri; details: postemergence, 10 days
# In short: as §1
# ragweed [19] = test: Test A postemergence; type: in vivo, Ambrosia artemisiifolia; details: postemergence, 10 days
# In short: as §1
# ryegrass, Italian [20] = test: Test A postemergence; type: in vivo, Lolium multiflorum; details: postemergence, 10 days
# In short: as §1
# soybean [21] = test: Test A postemergence; type: in vivo, Glycine max; details: postemergence, 10 days
# In short: as §1
# wheat [22] = test: Test A postemergence; type: in vivo, Triticum aestivum; details: postemergence, 10 days
# In short: as §1
# galium = test: Test A postemergence; type: in vivo, Galium aparine; details: postemergence, 10 days
# In short: as §1
# horseweed = test: Test A postemergence; type: in vivo, Erigeron canadensis; details: postemergence, 10 days
# In short: as §1
# barnyardgrass = test: Test B flooded paddy test; type: in vivo, Echinochloa crus-galli; details: 250 g ai/ha, Flood, 13 days, 0 to 100 scale (0 no effect, 100 complete control)
# In short: (§2)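 Application into standing water (3 cm above soil) at the two-leaf stage; flood depth held constant. Evaluation: day 13, visual comparison with controls, 0 = no injury, 100 = complete control.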
# ducksalad = test: Test B flooded paddy test; type: in vivo, Heteranthera limosa; details: 250 g ai/ha, Flood, 13 days, 0 to 100 scale (0 no effect, 100 complete control)
# In short: as §2
# rice = test: Test B flooded paddy test; type: in vivo, Oryza sativa; details: 250 g ai/ha, Flood, 13 days, 0 to 100 scale (0 no effect, 100 complete control)
# In short: as §2
# sedge, umbrella = test: Test B flooded paddy test; type: in vivo, Cyperus difformis; details: 250 g ai/ha, Flood, 13 days, 0 to 100 scale (0 no effect, 100 complete control)
# In short: as §2
# [23] = 125 g ai/ha, visual injury after 10 days, 0 to 100 scale, 0 is no effect, 100 is complete control
# [24] = 500 g ai/ha, 0 to 100 scale (0 no effect, 100 complete control), 10 days
# [25] = 125 g ai/ha, 0 to 100 scale, 0 no effect, 100 complete control
# [26] = 500 g ai/ha, visual injury, 0 to 100 scale (0 no effect, 100 complete control)
smiles,measurement,setting,value
C[C@H]1CN(C(=O)c2cccc(-n3cnc(C(C)(C)C)n3)c2)c2cccc(Cl)c2O1 [Compound 92],"Plant response rating, Blackgrass",blackgrass [1]; [23],80
same,"Plant response rating, Blackgrass",blackgrass [1]; [24],90
same,"Plant response rating, Corn",corn [2]; [23],30
same,"Plant response rating, Corn",corn [2]; [24],30
same,"Plant response rating, Foxtail, Giant","foxtail, giant [3]; [23]",70
same,"Plant response rating, Foxtail, Giant","foxtail, giant [3]; [24]",100
same,"Plant response rating, Goosegrass",goosegrass [4]; [23],100
same,"Plant response rating, Goosegrass",goosegrass [4]; [24],100
same,"Plant response rating, Kochia",kochia [5]; [23],70
same,"Plant response rating, Kochia",kochia [5]; [24],100
same,"Plant response rating, Oat, Wild","oat, wild [6]; [23]",80
same,"Plant response rating, Oat, Wild","oat, wild [6]; [24]",90
same,"Plant response rating, Pigweed, Palmer","pigweed, palmer [7]; [23]",100
same,"Plant response rating, Pigweed, Palmer","pigweed, palmer [7]; [24]",100
same,"Plant response rating, Ragweed",ragweed [8]; [23],0
same,"Plant response rating, Ragweed",ragweed [8]; [24],30
same,"Plant response rating, Ryegrass, Italian","ryegrass, Italian [9]; [23]",100
same,"Plant response rating, Ryegrass, Italian","ryegrass, Italian [9]; [24]",100
same,"Plant response rating, Soybean",soybean [10]; [23],50
same,"Plant response rating, Soybean",soybean [10]; [24],90
same,"Plant response rating, Wheat",wheat [11]; [23],30
same,"Plant response rating, Wheat",wheat [11]; [24],80
same,Blackgrass plant response rating,blackgrass [12]; [25],70
same,"Plant response rating, Blackgrass",blackgrass [12]; [26],90
same,Corn plant response rating,corn [13]; [25],30
same,"Plant response rating, Corn",corn [13]; [26],70
same,"Foxtail, Giant plant response rating","foxtail, giant [14]; [25]",30
same,"Plant response rating, Foxtail, Giant","foxtail, giant [14]; [26]",80
same,Goosegrass plant response rating,goosegrass [15]; [25],30
same,"Plant response rating, Goosegrass",goosegrass [15]; [26],50
same,Kochia plant response rating,kochia [16]; [25],80
same,"Plant response rating, Kochia",kochia [16]; [26],90
same,"Oat, Wild plant response rating","oat, wild [17]; [25]",50
same,"Plant response rating, Oat, Wild","oat, wild [17]; [26]",70
same,"Pigweed, Palmer plant response rating","pigweed, palmer [18]; [25]",90
same,"Plant response rating, Pigweed, Palmer","pigweed, palmer [18]; [26]",90
same,Ragweed plant response rating,ragweed [19]; [25],60
same,"Plant response rating, Ragweed",ragweed [19]; [26],70
same,"Ryegrass, Italian plant response rating","ryegrass, Italian [20]; [25]",50
same,"Plant response rating, Ryegrass, Italian","ryegrass, Italian [20]; [26]",100
same,Soybean plant response rating,soybean [21]; [25],90
same,"Plant response rating, Soybean",soybean [21]; [26],100
same,Wheat plant response rating,wheat [22]; [25],40
same,"Plant response rating, Wheat",wheat [22]; [26],50
same,Galium plant response rating,galium; [25],100
same,"Plant response rating, Galium",galium; [26],100
same,Horseweed plant response rating,horseweed; [25],0
same,"Plant response rating, Horseweed",horseweed; [26],50
same,"Plant response rating, Barnyardgrass",barnyardgrass,25
same,"Plant response rating, Ducksalad",ducksalad,90
same,"Plant response rating, Rice",rice,0
same,"Plant response rating, Sedge, Umbrella","sedge, umbrella",0
